Here are results for three compounds from publication PMC10700347, “Semisynthesis of 5-O-ester derivatives of renieramycin T and their cytotoxicity against non-small-cell lung cancer cell lines” (Scientific Reports, 2023).

Experiment [1] has as its system H292 NSCLC cells. The experiment in a line: Hoechst 33342/PI nuclear co-staining apoptosis and accidental necrosis assay, H292. The format is cell-based, human. To be noted: cisplatin-resistant H292, 7 h, 0–20 µM; statement for 1 at the highest concentration (20 µM). On the procedure: (§1) The anti-proliferative activity of compounds 1 and 3b against H292 and H460 cells were assessed across a range of concentrations (0–20 µM) under treatment at 10 and 24 h. […] The cytotoxic effect of 3b was closely resembled that of the parental compound 1 after 24 h treatment. According to their cytotoxic profiles at short treatment duration, the NSCLC cell lines were treated with various concentrations (0, 0.1, 1, 5, 10, and 20 µM) of compounds 1 and 3b, followed by Hoechst 33342 and PI staining to visualize morphological changes by fluorescence microscopy (Fig. 4C–F). The bright blue fluorescence of Hoechst 33342 indicated apoptosis, characterized by DNA condensation and fragmentation. In contrast, the red fluorescence emitted by propidium iodide (PI) indicated necrotic cell death. The percentage of apoptotic and necrotic cells was calculated based on the stained image.
(§2) NSCLC cells (H292 and H460) were seeded into a 96-well plate at a density of 1 × 10^4 cells/well for 24 h. Subsequently, the cells were treated with several concentrations of compounds 1 and 3b (0–20 µM) for 7 h. […] Visualization and imaging of the stained cells were carried out using a fluorescence microscope (Nikon ECLIPSE Ts2, Tokyo, Japan). […] The percentage of cell death was analyzed and reported.

The test system of experiment [2] is H460 NSCLC cells. Kind of experiment: Hoechst 33342/PI nuclear co-staining apoptosis and accidental necrosis assay, H460. The following applies: cisplatin-sensitive H460, 7 h, 0–20 µM. The format is cell-based, human. Here is the method: as §1, §2
Experiment [3] deals with dermal papilla (DP) cell line. The experiment in a line: MTT cell viability on normal cell line DP. To be noted: 72 h. It is filed as cell-based. Here is the method:
(§3) DP and BEAS-2B were seeded into 96-well plates at densities of 1 × 10^4 cells per well, while HaCaT cells were seeded at densities of 5 × 10^3 cells per well. The cells were allowed to adhere for 24 h. Subsequently, the cells were treated with various concentrations of compounds 3a–3o, 4a, and 4b at 72 h for DP cells and at 24 h for HaCaT and BEAS-2B cells. After the treatment period, cells were incubated with 0.5 mg/ml of MTT for 2 h. The resulting MTT product was measured at 570 nm using a spectrophotometric microplate reader. Cell viability was calculated by comparing the optical density (OD) measurements to those of the untreated control, and the results were expressed as a percentage.

The subject of experiment [4] is H292 non-small-cell lung cancer cell line. The experiment in a line: cells. The format is cell-based. To be noted: Homo sapiens, NCI-H292, H292, MTT. Here is the method: (§4) The in vitro cytotoxicity of all the semisynthesized esters and their precursors against H292 and H460 human NSCLC cell lines was analyzed based on the mitochondrial dehydrogenase activity via the MTT assay[43] (Table 1). The compounds were tested at doses of 1–250 nM. Cisplatin and doxorubicin, which are the standard chemotherapeutic drugs for the treatment of NSCLC, were used as positive controls. […] However, the extended use of 1 is limited by the concerns for unwanted necrosis, which is an unprogrammed form of cell death caused by the presence of two quinone moieties. […] The IC50 values of the 5-O-ester derivatives 3a, 3b, 3d, 3h, 3i, and 3k were in the same range as the mother compound 1.
(§5) The in vitro cytotoxicity of compounds 3a–3o, 4a, and 4b was determined against the H292 and H460 NSCLC cell lines by the MTT colorimetric assay. Each compound was dissolved in DMSO to prepare a 10 mM stock solution. Both the H292 and H460 cells were cultured in RPMI 1640 medium supplemented with 2 mM L-glutamine, 10% FBS, and 100 units/mL of penicillin–streptomycin at 37 °C under 5% CO2. The NSCLC cells were trypsinized and seeded with a density of 5 × 10^3 cells/well in a 96-well plate, followed by overnight incubation. Serial dilutions of the test compounds ranging from 1 to 250 nM were prepared in the presence of DMSO (< 0.2% v/v). […] After incubation, formazan crystals were solubilized by adding 100 µL of DMSO, and their absorbance was measured at 570 nm by a spectrophotometric microtiter plate reader (PerkinElmer Victor 3 1420 Multilabel Plate Counter). Cell viability was calculated as the percentage of nontreated control cells. The mean IC50 values were obtained from three independent experiments. Each experiment was conducted in triplicate with at least five concentrations of the tested compounds. The GraphPad Prism software (version 5) was used to calculate the average IC50 and standard deviation (S.D.) values for each experiment. Cisplatin and doxorubicin were used as the positive controls, while 0.2% DMSO served as the negative control.

For experiment [5], the system named is H460 non-small-cell lung cancer cell line. The experiment in a line: cells. It is filed as cell-based. To be noted: Homo sapiens, NCI-H460, H460, MTT. On the procedure:
as §4, §5

In experiment [6] the test system is H460 NSCLC cells. Kind of experiment: Annexin V-FITC/PI double staining flow cytometry, H460. The format is cell-based, human. The following applies: H460, 7 h; statement for 1 at 20 µM. Here is the method: (§6) Apoptosis cell death was investigated following the manufacturer's protocol (ImmunoTools, Friesoythe, Germany) using FITC–labeled Annexin V/PI. Treated cells was cultured overnight in 24-well plates at a density of 5 × 10^4 cells/well. Subsequently, cells were treated with various concentrations of 1, and 3b (0, 0.1, 1, 5, 10, and 20 µM) for 7 h. After treatment, cells were collected, washed with cold PBS, and then suspended in binding buffer. Each cell suspension was stained with 2.5 µL of annexin V-FITC and 1 µL of PI. The mixture was vortexed, then incubated for 15 min at room temperature. Guava easyCyte flow cytometer (EMD Millipore, Hayward, CA, USA) was utilized to detect live, apoptotic, and necrotic cells. The modes of cell death were classified as necrotic (PI+), and apoptotic cell death, divided into early apoptotic (PI (-) Annexin-V (+)) and late apoptotic (PI (+) Annexin-V (+)).

Experiment [7] deals with human keratinocyte (HaCaT) cell line. The experiment in a line: MTT cell viability on normal cell line HaCaT. It is filed as cell-based. To be noted: Homo sapiens, 24 h, read-out: IC50 ± S.D. HaCaT. Here is the method:
as §3

For experiment [8], the system named is non-tumorigenic bronchial epithelial (BEAS-2B) cell line. Kind of experiment: MTT cell viability on normal cell line BEAS-2B. The format is cell-based. The following applies: Homo sapiens, BEAS-2B normal cell line, 24 h, read-out: IC50 ± S.D. BEAS-2B. On the procedure: as §3
In experiment [9] the test system is H292 NSCLC cells. The experiment in a line: Annexin V-FITC/PI double staining flow cytometry, H292. The format is cell-based, human. The following applies: H292, 7 h; statement for 1 at 20 µM. On the procedure:
as §6

Where [10] appears, read: 10 h, 0–20 µM, read-out: IC50 ± S.D. H292 10 h.
Where [11] appears, read: 24 h, 0–20 µM, read-out: IC50 ± S.D. H292 24 h.
The mark [12] stands for this setting: 72 h, read-out: IC50 ± S.D. H292.
Setting [13] is: 10 h, 0–20 µM, read-out: IC50 ± S.D. H460 10 h.
Setting [14] is: 24 h, 0–20 µM, read-out: IC50 ± S.D. H460 24 h.
[15] abbreviates: 72 h, read-out: IC50 ± S.D. H460.

Read-outs that look alike come from different tables or passages of the source.

For `C/C=C(/C)C(=O)OC[C@H]1C2=C(C[C@H]3[C@H]4C5=C(C[C@@H]([C@H](C#N)N13)N4C)C(=O)C(C)=C(OC)C5=O)C(=O)C(C)=C(OC)C2=O` [Compound 1, Renieramycin M], the “Mode of cell death (apoptosis / accidental necrosis) by Hoechst 33342/PI staining” value is “induced both apoptosis and accidental necrosis” in the experiment on H292 NSCLC cells [1]; “unwanted necrosis was observed in a dosed-dependent manner” in the experiment with H460 NSCLC cells [2]. Further, the half-inhibitory concentration (IC50) in experiment [3] was 7.07 ± 1.5 nM; in experiment [4] (setting [10]) it was 4920 ± 3140 nM; in experiment [4] (setting [11]), 3240 ± 800 nM; in [4] (setting [12]), 34.4 ± 1.7 nM; in experiment [5] (setting [13]), 12000 ± 2730 nM; in [5] (setting [14]), 4130 ± 1000 nM. The concentration for half-maximal inhibition (IC50) in [5] (setting [15]) came to 35.6 ± 1.82 nM; in [7], 8.01 ± 0.53 nM; in experiment [8] it was 75 ± 9.77 nM. Moreover, the “Mode of cell death by annexin V-FITC/PI flow cytometric analysis” value in the experiment with H460 NSCLC cells [6] is “necrotic cell death in both H292 and H460 cell lines in conjugation with late apoptosis”; in the experiment with H292 NSCLC cells [9], “necrotic cell death in both H292 and H460 cell lines in conjugation with late apoptosis”.

Take `C/C=C(/C)C(=O)OC[C@H]1c2c(c(OC(=O)CC)c(C)c3c2OCO3)C[C@H]2[C@H]3C4=C(C[C@@H]([C@H](C#N)N12)N3C)C(=O)C(C)=C(OC)C4=O` [Compound 3b, 5-O-(3-propanoyl) ester of renieramycin T]: the “Mode of cell death (apoptosis / accidental necrosis) by Hoechst 33342/PI staining” value with H292 NSCLC cells [1] is listed as “morphological apoptosis with no detectable necrotic cells”; in the experiment on H460 NSCLC cells [2] it was “induced apoptosis with minimal necrosis”. The IC50 in experiment [3] came to 23.6 ± 0.65 nM; in experiment [4] (setting [10]), 17600 ± 6580 nM; in experiment [4] (setting [11]), 4140 ± 840 nM; in experiment [4] (setting [12]) it was 33.4 ± 0.87 nM; in experiment [5] (setting [13]), 18800 ± 400 nM; in experiment [5] (setting [14]) it was 7320 ± 520 nM. Besides, the values for the IC50 in experiment [5] (setting [15]), in [7] and in [8] were 33.9 ± 1.95 nM, 33.7 ± 9.43 nM and 90.2 ± 9.49 nM, respectively. Further, the “Mode of cell death by annexin V-FITC/PI flow cytometric analysis” value in the experiment with H460 NSCLC cells [6] and in the experiment on H292 NSCLC cells [9] was “early apoptosis with minimal necrosis” each time.

Turning to `COc1cccc2c1C(=O)c1c(O)c3c(c(O)c1C2=O)C[C@@](O)(C(=O)CO)C[C@@H]3O[C@H]1C[C@H](N)[C@H](O)[C@H](C)O1` [Doxorubicin, reference compound], the concentration for half-maximal inhibition (IC50) is 58 ± 24.4 nM in experiment [3]; 40.8 ± 6.89 nM in experiment [4] (setting [12]); 43.9 ± 6.26 nM in experiment [5] (setting [15]); 915 ± 50.2 nM in experiment [7]; 663 nM in experiment [8].
